Entries after “also recorded” stand apart in the source; their conditions may differ.
Tests used:
[1] = system: fast axonal transport (FAT), anterograde (conventional kinesin-dependent) and retrograde (CDyn-dependent); test: Vesicle motility assays in isolated squid axoplasm perfused with SOD1 polypeptides; assay type: cell-based; conditions: polypeptides perfused at 5 μM; video-enhanced microscopy over 50 minutes
Description: Although the axonal compartment represents a critical pathogenic target in ALS, axon-specific effects of mutant SOD1 have not been previously addressed. […] However, it was not clear whether those defects resulted from pathogenic events in the neuronal cell body, or from alterations of cellular processes within the axonal compartment (Conforti, et al. (2007) Trends Neurosci. 30:159-66). Therefore, axon-autonomous effects of pathogenic SOD1 on FAT were evaluated using vesicle motility assays in isolated squid axoplasm, which lacks both nuclear and protein synthetic synthesis compartments. This experimental system allows for quantitative analysis of MBOs moving in both anterograde (conventional kinesin-dependent) and retrograde (cytoplasmic dynein-dependent) FAT rates. Further, the lack of plasma membrane in this preparation facilitates an evaluation of the effects of neuropathogenic proteins on FAT.
Highly purified (>95%), recombinant forms of wild-type SOD1 (WT-SOD1) and […] fALS-related SOD1 mutants (G93A-SOD1, G85R-SOD1, H46R and A4V-SOD1) were according to standard methods (Strange, et al. (2003) J. Mol. Biol. 328:877-891). Polypeptides were perfused at 5 μM concentration, and both anterograde (conventional kinesin-dependent) and retrograde (CDyn-dependent) FAT rates analyzed by video-enhanced microscopy over 50 minutes. Perfusion of wild type SOD1 (WT-SOD1) had no effect on either direction of FAT. […] Further, the presence of ATP (5 mM) in the perfusion buffer also ruled out mutant SOD1-induced deficits in ATP production.

NF220 (neurofilament) = test: Metabolic labeling of isolated sister axoplasms with 32P-ATP, autoradiography/PHOSPHORIMAGER; assay type: cell-based, squid; conditions: compared to WT-SOD1-perfused sister axon; 50-minute incubation; n=4; p≦0.0284
Description: To determine whether mutant SOD1 could induce activation of axonal kinases, metabolic labeling experiments were performed in isolated axoplasms. These procedures helped evaluate effects of WT-SOD1 and G93-SOD1 polypeptides on the phosphorylation pattern of axonal proteins. Two axons from the same squid (“sister” axons) were dissected and extruded. One axon was perfused with WT-SOD1, whereas the contralateral “sister” axon was perfused with G93A-SOD1 in the presence of P^32-radiolabelled ATP. After a 50-minute incubation, axoplasms were lysed and analyzed by autoradiography. Neurofilament (NF) proteins represent the major phosphoproteins proteins in both squid axoplasm and mammalian axons. Consistent with this, increased phosphorylation of NFs represents a well-documented feature early in the course of ALS.

p38 = test: Immunoblot of sister axoplasms with antibodies against phosphorylated, catalytically active p38; assay type: cell-based, squid; conditions: compared to WT-SOD1-perfused axoplasm; n=8
Description: (§1) To refine this identification, activation of various p38 and other NF kinases were evaluated in “sister” axoplasms. […] Quantitative analysis of immunoblots indicated G93A-SOD1 induced approximately a 4-fold increase in p38 activity, compared to WT-SOD1 perfused of p38 (n=8).

GSK3 = test: Immunoblot of sister axoplasms with activation-specific phosphoantibodies (GSK3); assay type: cell-based, squid; conditions: G93A-SOD1 vs WT-SOD1-perfused axoplasms
Description: as §1

ERK = test: Immunoblot of sister axoplasms with activation-specific phosphoantibodies (ERK); assay type: cell-based, squid; conditions: G93A-SOD1 vs WT-SOD1-perfused axoplasms
Description: as §1

JNK = test: Immunoblot of sister axoplasms with activation-specific phosphoantibodies (JNK); assay type: cell-based, squid; conditions: G93A-SOD1 vs WT-SOD1-perfused axoplasms
Description: as §1

[2] = system: fast axonal transport (FAT); test: Vesicle motility assays in squid axoplasm perfused with recombinant active p38 isoforms; assay type: cell-based
Description: Four p38 genes exist in mammals (p38α, p38β, p38γ, and p38δ) (Kyriakis & Avruch (2001) Physiol. Rev. 81:807-69). The p38α and p38β kinases are major p38 isoforms within the nervous system (Lee, et al. (2000) J. Neurosci. Res. 60:623-31), as well as being the most prominent p38 isoforms expressed in motor neurons of the anterior horn spinal cord, the main cell type affected in ALS (Ackerley, et al. (2004) Mol. Cell. Neurosci. 26:354-64). The effect of specific p38 isoforms on FAT was evaluated using vesicle motility assays. The enzymatic activities of recombinant p38 isoforms were first normalized using in vitro kinase assays with ATF-2 as substrate.

[3] = system: KHC584 (first 584 amino acid residues of kinesin-1c); test: In vitro kinase assay of recombinant p38α with KHC584; assay type: biochemical; conditions: sites mapped to Ser175 and Ser176 by LC/MS/MS
Description: Although p38α was implicated in mediating the inhibitory effect of pathogenic SOD1 on FAT, specific p38α targets relevant to these effects needed to be determined (Bendotti, et al. (2005) Neurodegener. Dis. 2:128-34). […] These precedents prompted the determination of whether p38α could directly phosphorylate kinesin-1 subunits of conventional kinesin.
Liquid chromatography tandem mass spectrometry (LC/MS/MS) was used to map KHC584 residues phosphorylated by p38α. To this end, in vitro phosphorylated KHC584 was directly digested with trypsin for LC/MS/MS analysis. Trypsin digest products were fractioned on a C18 HPLC connected to an on-line electrospray ion trap mass spectrometer. Peptide identification was done using SEQUEST algorithm. KHC584 identity was confirmed by identification of multiple kinesin-1C peptides. A peptide corresponding to amino acids 174-188 with unequivocal evidence of phosphorylation by p38α was identified based on spectrum analysis, cross correlation and delta correlation values. Tandem mass spectrometry analysis (MS/MS) by collision-induced dissociation further mapped phosphorylation on both Ser175 and Ser176, consistent with studies showing phosphorylation of Ser176 by the MAPK JNK3. Remarkably, serines 175 and 176 are conserved among squid, mouse and human kinesin-1s (FIG. 4). […]

[4] = system: inhibition of anterograde FAT by G93A-SOD1; test: Co-perfusion of G93A-SOD1 with kinase inhibitors in squid axoplasm (vesicle motility assay); assay type: cell-based; conditions: for prevention of the inhibition of anterograde FAT induced by G93A-SOD1: co-perfused with recombinant G93A-SOD1 in axoplasm
Description: Increased phosphorylation of neurofilament indicated altered kinase activity with mutant SOD1 and kinases represent a major mechanism for the regulation of conventional kinesin (Donelan, et al. (2002) J. Biol. Chem. 277:24232-42; Morfini, et al. (2006) Nat. Neurosci. 9:907-16; Morfini, et al. (2002) EMBO J. 23:281-93; Morfini, et al. (2001) Dev. Neurosci. 23:364-76). Accordingly, it was determined whether specific protein kinases mediated the effect of mutant SOD1 on anterograde FAT. To this end, axoplasms were co-perfused with recombinant G93A-SOD1 and specific pharmacological or peptide inhibitors of protein kinases. Co-perfusion approaches have facilitated the identification of kinase-dependent pathogenic pathways in other models.
SB203580 is a highly specific pharmacological kinase inhibitor of the mitogen-activated protein kinase (MAPK) p38, and its specificity has been evaluated for more than 100 kinases (Fabian, et al. (2005) Nat. Biotechnol. 23:329-36).
In addition to the docking interactions of MAPKs with MKKs, substrates and regulators there are specific motifs that control the interactions of MKKKs and MKKs. A docking site termed DVD (domain for versatile docking) is found in several MKKs including MKK3 and MKK6, which are involved in p38 regulation. […] Observations of p38 activation in an ALS mouse model prompted the evaluation of the role of MKKs in mediating the inhibitory effect of mutant SOD1 on FAT. To this end, pharmacological inhibitors of MKKKs were co-perfused along with SOD1-G93A in squid axoplasm. The MLK-specific inhibitor CEP11004 (Ganguly, et al. (2004) J. Neurochem. 88(2):469) was ineffective, but co-perfusion of mutant SOD1 with DVD peptide prevented the effects of mutant SOD1 on FAT. The DVD site on MKKs is required for docking and activation by a subset of upstream MKKKs (ASK1, TAK1, etc.), and peptides based on this sequences prevents MAPK activation in cultured cells (Takekawa, et al. (2005) Mol. Cell. 18(3):295).

[5] = system: N2A cells stably transfected with G85R-SOD1; test: Cell viability (LDH) assay, cells exposed to cyclosporine (CsA); assay type: cell-based; conditions: various concentrations of CsA, presence or absence of inhibitor
Description: (§2) Multiple studies have documented activation of apoptotic mechanism in association with mutant SOD1 expression (Pasinelli, et al. (2004) Neuron 43:19-30). […] To evaluate the role of p38 in this process, cell viability (LDH) and caspase activity assays were performed using N2A cells stably transfected with WT-SOD1 or G85R-SOD1 constructs. […] N2A cells were exposed to various concentrations of CsA in the presence or absence of the p38 inhibitor SB203580.

[6] = system: N2A cells stably transfected with G85R-SOD1; test: Caspase-3 activity assay, cells exposed to cyclosporine (CsA); assay type: cell-based; conditions: various concentrations of CsA, presence or absence of inhibitor
Description: as §2

With “G93A-SOD1: recombinant fALS-related SOD1 mutant G93A” the “effect on anterograde FAT rate” value [1] was “selectively inhibited”, the “increase in overall NF220 phosphorylation” value (NF220 (neurofilament)) was 2 fold and the “increase in p38 activity (p-p38 immunoblot)” value (p38) was ~4 fold. The “change in GSK3 activity” value (GSK3) was “did not reveal changes”, the “change in ERK activity” value (ERK) was “did not reveal changes” and the “change in JNK activity” value (JNK) was “did not reveal changes”.

“WT-SOD1: highly purified recombinant wild-type SOD1” was tested, and the “effect on anterograde FAT rate” value [1] was “no effect” and the “effect on retrograde FAT rate” value [1] was “no effect”.

p38α: recombinant active p38 isoform α was tested, and the “effect on FAT” value ([2]; perfused at 10 nM) was “most closely mimicked; also recorded: selective inhibition of anterograde FAT” and the “phosphorylation of KHC584” value [3] was “phosphorylated”.

In the case of CEP11004, the “prevention of the inhibition of anterograde FAT induced by G93A-SOD1” value [4] is reported as “ineffective”.

In the case of `C[S+]([O-])c1ccc(-c2nc(-c3ccncc3)c(-c3ccc(F)cc3)[nH]2)cc1` (stereo not shown) [SB203580], the “anterograde FAT rates compared with WT-SOD1-perfused axoplasm” value ([4]; co-perfused with G93A-SOD1, FIG. 2) is reported as “undistinguishable”, the “prevention of the inhibition of anterograde FAT induced by G93A-SOD1” value [4] is reported as “protective effects; also recorded: completely prevented” and the “attenuation of cell death (LDH)” value [5] is reported as “significant attenuation”. The “attenuation of caspase activation (caspase-3 activity)” value [6] was “significant attenuation”.

B1: p38δ: recombinant active p38 isoform δ (protein, UniProt O15264 1-365, looked up)
Mitogen-activated protein …: MSLIRKKGFYKQDVNKTAWELPKTYVSPTHVGSGAYGSVCSAIDKRSGEKVAIKKLSRPFQSEIFAKRAYRELLLLKHMQHENVIGLLDVFTPASSLRNFYDFYLVMPFMQTDLQKIMGMEFSEEKIQYLVYQMLKGLKYIHSAGVVHRDLKPGNLAVNEDCELKILDFGLARHADAEMTGYVVTRWYRAPEVILSWMHYNQTVDIWSVGCIMAEMLTGKTLFKGKDYLDQLTQILKVTGVPGTEFVQKLNDKAAKSYIQSLPQTPRKDFTQLFPRASPQAADLLEKMLELDVDKRLTAAQALTHPFFEPFRDPEEETEAQQPFDDSLEHEKLTVDEWKQHIYKEIVNFSPIARKDSRRRSGMKL
B1 was tested, and the “effect on FAT” value ([2]; perfused at 50 nM) was “no effect” and the “effect on FAT” value ([2]; perfused at 50 nM, listed as p385) was “did not affect FAT”.

B2: p38γ: recombinant active p38 isoform γ (protein, UniProt P53778 1-367, looked up)
Mitogen-activated protein …: MSSPPPARSGFYRQEVTKTAWEVRAVYRDLQPVGSGAYGAVCSAVDGRTGAKVAIKKLYRPFQSELFAKRAYRELRLLKHMRHENVIGLLDVFTPDETLDDFTDFYLVMPFMGTDLGKLMKHEKLGEDRIQFLVYQMLKGLRYIHAAGIIHRDLKPGNLAVNEDCELKILDFGLARQADSEMTGYVVTRWYRAPEVILNWMRYTQTVDIWSVGCIMAEMITGKTLFKGSDHLDQLKEIMKVTGTPPAEFVQRLQSDEAKNYMKGLPELEKKDFASILTNASPLAVNLLEKMLVLDAEQRVTAGEALAHPYFESLHDTEDEPQVQKYDDSFDDVDRTLDEWKRVTYKEVLSFKPPRQLGARVSKETPL
In the case of B2, the “effect on FAT” value ([2]; perfused at 100 nM) is reported as “lesser extent; also recorded: more modest effect”.

B3: p3813: recombinant active p38 isoform β (misprinted) (protein, UniProt Q15759 1-364, looked up)
Mitogen-activated protein …: MSGPRAGFYRQELNKTVWEVPQRLQGLRPVGSGAYGSVCSAYDARLRQKVAVKKLSRPFQSLIHARRTYRELRLLKHLKHENVIGLLDVFTPATSIEDFSEVYLVTTLMGADLNNIVKCQALSDEHVQFLVYQLLRGLKYIHSAGIIHRDLKPSNVAVNEDCELRILDFGLARQADEEMTGYVATRWYRAPEIMLNWMHYNQTVDIWSVGCIMAELLQGKALFPGSDYIDQLKRIMEVVGTPSPEVLAKISSEHARTYIQSLPPMPQKDLSSIFRGANPLAIDLLGRMLVLDSDQRVSAAEALAHAYFSQYHDPEDEPEAEPYDESVEAKERTLEEWKELTYQEVLSFKPPEPPKPPGSLEIEQ
In the case of B3, the “effect on FAT” value ([2]; perfused at 50 nM) is reported as “inhibited both anterograde and retrograde FAT”.
